Measured values published in PubChem BioAssay AID1745844 (Carcinogenic Potency Database (CPDB), 2022).

Test system: rodent lifetime carcinogenesis bioassay, tumor incidence TD50
Test: carcinogenic potency in animals, long-term in vivo studies, CPDB compilation (AID 1745844)
Conditions: in feed, study length 104 weeks

COc1ccccc1[N+](=O)[O-]
TD50 (mouse, strain B6C3F1, females, site: all sites, lesion: malignant lymphoma, histiocytic type + malignant lymphoma, mixed type + malignant lymphoma, lymphocytic type + malignant lymph, dosed 103 weeks): 153 mg/kg/day
TD50 (mouse, strain B6C3F1, females, site: any site (literature study), lesion: several types, types named in the paper, dosed 103 weeks): 350 mg/kg/day
TD50 (mouse, strain B6C3F1, females, site: liver, lesion: hepatocellular adenoma + hepatoblastoma + hepatocellular carcinoma, dosed 103 weeks): 194 mg/kg/day
TD50 (mouse, strain B6C3F1, females, site: liver, lesion: hepatocellular adenoma + hepatocellular carcinoma, dosed 103 weeks): 194 mg/kg/day
TD50 (mouse, strain B6C3F1, females, site: liver, lesion: hepatocellular adenoma, dosed 103 weeks): 179 mg/kg/day
TD50 (mouse, strain B6C3F1, males, site: any site (literature study), lesion: several types, types named in the paper, dosed 103 weeks): 43500 mg/kg/day
TD50 (mouse, strain B6C3F1, males, site: liver, lesion: hepatoblastoma + hepatocellular carcinoma, dosed 103 weeks): 391 mg/kg/day
TD50 (mouse, strain B6C3F1, males, site: liver, lesion: hepatoblastoma, dosed 103 weeks): 428 mg/kg/day
TD50 (mouse, strain B6C3F1, males, site: liver, lesion: hepatocellular adenoma + hepatoblastoma + hepatocellular carcinoma, dosed 103 weeks): 198 mg/kg/day
TD50 (mouse, strain B6C3F1, males, site: liver, lesion: hepatocellular adenoma + hepatocellular carcinoma, dosed 103 weeks): 208 mg/kg/day
TD50 (mouse, strain B6C3F1, males, site: liver, lesion: hepatocellular adenoma, dosed 103 weeks): 177 mg/kg/day
TD50 (rat, strain Fischer 344, females, site: all sites, lesion: mononuclear-cell leukemia, dosed 103 weeks): 152 mg/kg/day
TD50 (rat, strain Fischer 344, females, site: any site (literature study), lesion: several types, types named in the paper, dosed 27 weeks): 10.7 mg/kg/day
TD50 (rat, strain Fischer 344, females, site: any site (literature study), lesion: several types, types named in the paper, dosed 103 weeks): 336 mg/kg/day
TD50 (rat, strain Fischer 344, females, site: colon, lesion: adenomatous polyp, dosed 27 weeks): 60.9 mg/kg/day
TD50 (rat, strain Fischer 344, females, site: colon, lesion: carcinoma, dosed 27 weeks): 1300 mg/kg/day
TD50 (rat, strain Fischer 344, females, site: forestomach, lesion: squamous-cell carcinoma + squamous-cell papilloma, dosed 103 weeks): 1270 mg/kg/day
TD50 (rat, strain Fischer 344, females, site: forestomach, lesion: squamous-cell papilloma, dosed 103 weeks): 3270 mg/kg/day
TD50 (rat, strain Fischer 344, females, site: kidney + large intestine + urinary bladder, lesion: transitional-cell carcinoma + transitional-cell papilloma + adenomatous polyp + carcinoma + sarcoma + squamous-cell carcinoma + squa, dosed 27 weeks): 12.9 mg/kg/day
TD50 (rat, strain Fischer 344, females, site: kidney, lesion: transitional-cell carcinoma + transitional-cell papilloma, dosed 27 weeks): 1240 mg/kg/day
TD50 (rat, strain Fischer 344, females, site: kidney, lesion: transitional-cell carcinoma, dosed 27 weeks): 3550 mg/kg/day
TD50 (rat, strain Fischer 344, females, site: kidney, lesion: transitional-cell papilloma, dosed 27 weeks): 1890 mg/kg/day
TD50 (rat, strain Fischer 344, females, site: large intestine, lesion: adenomatous polyp + carcinoma, dosed 27 weeks): 55 mg/kg/day
TD50 (rat, strain Fischer 344, females, site: large intestine, lesion: adenomatous polyp, dosed 27 weeks): 55 mg/kg/day
TD50 (rat, strain Fischer 344, females, site: large intestine, lesion: carcinoma, dosed 27 weeks): 1300 mg/kg/day
TD50 (rat, strain Fischer 344, females, site: liver, lesion: hepatocellular adenoma + hepatoblastoma + hepatocellular carcinoma, dosed 103 weeks): 1010 mg/kg/day
TD50 (rat, strain Fischer 344, females, site: liver, lesion: hepatocellular adenoma, dosed 103 weeks): 1010 mg/kg/day
TD50 (rat, strain Fischer 344, females, site: lung, lesion: alveolar/bronchiolar adenoma, dosed 103 weeks): 666 mg/kg/day
TD50 (rat, strain Fischer 344, females, site: rectum, lesion: adenomatous polyp, dosed 27 weeks): 560 mg/kg/day
TD50 (rat, strain Fischer 344, females, site: urinary bladder, lesion: sarcoma, dosed 27 weeks): 192 mg/kg/day
TD50 (rat, strain Fischer 344, females, site: urinary bladder, lesion: squamous-cell carcinoma + squamous-cell papilloma, dosed 27 weeks): 588 mg/kg/day
TD50 (rat, strain Fischer 344, females, site: urinary bladder, lesion: squamous-cell carcinoma, dosed 27 weeks): 2700 mg/kg/day
TD50 (rat, strain Fischer 344, females, site: urinary bladder, lesion: squamous-cell papilloma, dosed 27 weeks): 751 mg/kg/day
TD50 (rat, strain Fischer 344, females, site: urinary bladder, lesion: transitional-cell carcinoma + transitional-cell papilloma, dosed 27 weeks): 13 mg/kg/day
TD50 (rat, strain Fischer 344, females, site: urinary bladder, lesion: transitional-cell carcinoma, dosed 27 weeks): 13.2 mg/kg/day
TD50 (rat, strain Fischer 344, females, site: urinary bladder, lesion: transitional-cell papilloma, dosed 27 weeks): 543 mg/kg/day
TD50 (rat, strain Fischer 344, males, site: adrenal medulla, lesion: pheochromocytoma benign, bilateral + pheochromocytoma, benign, dosed 103 weeks): 89.6 mg/kg/day
TD50 (rat, strain Fischer 344, males, site: adrenal medulla, lesion: pheochromocytoma benign, bilateral + pheochromocytoma, malignant + pheochromocytoma, benign, dosed 103 weeks): 109 mg/kg/day
TD50 (rat, strain Fischer 344, males, site: all sites, lesion: mononuclear-cell leukemia, dosed 103 weeks): 25.9 mg/kg/day
TD50 (rat, strain Fischer 344, males, site: any site (literature study), lesion: several types, types named in the paper, dosed 27 weeks): 3.97 mg/kg/day
TD50 (rat, strain Fischer 344, males, site: any site (literature study), lesion: several types, types named in the paper, dosed 103 weeks): 21.4 mg/kg/day
TD50 (rat, strain Fischer 344, males, site: cecum, lesion: adenomatous polyp, dosed 27 weeks): 21.3 mg/kg/day
TD50 (rat, strain Fischer 344, males, site: colon, lesion: adenomatous polyp, dosed 27 weeks): 17.2 mg/kg/day
TD50 (rat, strain Fischer 344, males, site: colon, lesion: carcinoma, dosed 27 weeks): 573 mg/kg/day
TD50 (rat, strain Fischer 344, males, site: forestomach, lesion: squamous-cell carcinoma + squamous-cell papilloma, dosed 103 weeks): 304 mg/kg/day
TD50 (rat, strain Fischer 344, males, site: forestomach, lesion: squamous-cell carcinoma, dosed 103 weeks): 715 mg/kg/day
TD50 (rat, strain Fischer 344, males, site: forestomach, lesion: squamous-cell papilloma, dosed 103 weeks): 543 mg/kg/day
TD50 (rat, strain Fischer 344, males, site: kidney + large intestine + urinary bladder, lesion: transitional-cell carcinoma + transitional-cell papilloma + adenomatous polyp + carcinoma + sarcoma + squamous-cell carcinoma + squa, dosed 27 weeks): 7.47 mg/kg/day
TD50 (rat, strain Fischer 344, males, site: kidney, lesion: transitional-cell carcinoma + transitional-cell papilloma, dosed 27 weeks): 83.6 mg/kg/day
TD50 (rat, strain Fischer 344, males, site: kidney, lesion: transitional-cell carcinoma, dosed 27 weeks): 90.9 mg/kg/day
TD50 (rat, strain Fischer 344, males, site: kidney, lesion: transitional-cell papilloma, dosed 27 weeks): 1040 mg/kg/day
TD50 (rat, strain Fischer 344, males, site: kidney, lesion: tubule adenoma + tubule carcinoma, dosed 103 weeks): 251 mg/kg/day
TD50 (rat, strain Fischer 344, males, site: kidney, lesion: tubule adenoma, dosed 103 weeks): 435 mg/kg/day
TD50 (rat, strain Fischer 344, males, site: kidney, lesion: tubule carcinoma, dosed 103 weeks): 612 mg/kg/day
TD50 (rat, strain Fischer 344, males, site: large intestine, lesion: adenomatous polyp + carcinoma, dosed 27 weeks): 8.54 mg/kg/day
TD50 (rat, strain Fischer 344, males, site: large intestine, lesion: adenomatous polyp, dosed 27 weeks): 8.58 mg/kg/day
TD50 (rat, strain Fischer 344, males, site: large intestine, lesion: carcinoma, dosed 27 weeks): 573 mg/kg/day
TD50 (rat, strain Fischer 344, males, site: liver, lesion: hepatocellular adenoma + hepatoblastoma + hepatocellular carcinoma, dosed 103 weeks): 330 mg/kg/day
TD50 (rat, strain Fischer 344, males, site: preputial gland, lesion: carcinoma + carcinoma, bilateral, dosed 103 weeks): 195 mg/kg/day
TD50 (rat, strain Fischer 344, males, site: rectum, lesion: adenomatous polyp, dosed 27 weeks): 51.8 mg/kg/day
TD50 (rat, strain Fischer 344, males, site: testis, lesion: interstitial-cell adenoma, bilateral + interstitial-cell adenoma, dosed 103 weeks): 21.3 mg/kg/day
TD50 (rat, strain Fischer 344, males, site: urinary bladder, lesion: sarcoma, dosed 27 weeks): 292 mg/kg/day
TD50 (rat, strain Fischer 344, males, site: urinary bladder, lesion: squamous-cell carcinoma + squamous-cell papilloma, dosed 27 weeks): 273 mg/kg/day
TD50 (rat, strain Fischer 344, males, site: urinary bladder, lesion: squamous-cell carcinoma, dosed 27 weeks): 422 mg/kg/day
TD50 (rat, strain Fischer 344, males, site: urinary bladder, lesion: squamous-cell papilloma, dosed 27 weeks): 482 mg/kg/day
TD50 (rat, strain Fischer 344, males, site: urinary bladder, lesion: transitional-cell carcinoma + transitional-cell papilloma, dosed 27 weeks): 7.48 mg/kg/day
TD50 (rat, strain Fischer 344, males, site: urinary bladder, lesion: transitional-cell carcinoma, dosed 27 weeks): 8.28 mg/kg/day
TD50 (rat, strain Fischer 344, males, site: urinary bladder, lesion: transitional-cell papilloma, dosed 27 weeks): 75.6 mg/kg/day
